Results: patent US5478816A, “Liquid vitamin formulations containing vitamin D esters” (Bristol-Myers Squibb Company, priority 1993, dated 1995)
Values joined by “and” are separate entries in the source; they are usually repeats but may differ in a detail not shown here. Equal values may be shown once.

Assay: Short-term stability of vitamin D3 and vitamin D3 palmitate in liquid vitamin formulations at 40° C. (HPLC assay)
Assay type: physicochemical
Conditions: for Vitamin D content on storage: 40° C.
Method: In addition to the above, the vitamin formulation contains flavorants, stabilizer of vitamins, and about 1.0% polysorbate 80 as surfactant. As appreciated by the skilled artisan, appropriate overages of vitamins are included in order to assure meeting the label claims. The example composition contains 1.86:1 ratio by weight of glycerine to water. The pH is 5.0 which is adjusted by using an appropriate ratio of ascorbic acid to sodium ascorbate.
Vitamin D was analyzed by a HPLC assay as described by Matthew G. Sliva, et al., "Reversed-Phase Liquid Chromatographic Determination of Vitamin D in Infant Formulas and Enteral Nutritionals," J Assoc. Off. Anal. Chem., 75, 566, 1992, except that saponification conditions of 70° C. for 40 minutes were employed.
Stability of vitamins D3 and D3 palmitate were compared in various vitamin formulations containing different amounts of water and glycerin and at different pHs. The other ingredients and method of pH adjustment were as described in Example 1. The results are in Tables 2-5. Each batch number represents a different liquid vitamin formulation. The amount of glycerin varied between 650 and 850 mg/ml, depending upon the amount of water. "Vit" represents vitamin, "Desc." represents description,"Vit D3" represents vitamin D3, and "Vit D3P" or "D3 P" represents vitamin D3 palmitate. Table 1 lists the half-life (T50) values, i.e., time to degrade to 50% of the starting concentration of vitamins D3 and D3 palmitate at 40° C., These T50 values were calculated by fitting the data to first order degradation rate.

Compound: C=C1CC[C@H](OC(=O)CCCCCCCCCCCCCCC)C/C1=C/C=C1\CCC[C@]2(C)[C@@H]([C@H](C)CCCC(C)C)CC[C@@H]12 [Vitamin D3 P, vitamin D3 palmitate]
- half-life (liquid vitamin formulation, pH 5.6, Time in Weeks for 50% Degradation (T50)): 113 days
- Vitamin D content on storage (pH 3.2, 252 mg/ml water, age 0 weeks, Batch #1 (D3), #2 (D3 P)): 810 IU/ml
- Vitamin D content on storage (pH 3.2, 252 mg/ml water, age 2 weeks, Batch #1 (D3), #2 (D3 P)): 715 IU/ml and 717 IU/ml
- Vitamin D content on storage (pH 3.2, 252 mg/ml water, age 4 weeks, Batch #1 (D3), #2 (D3 P)): 668 IU/ml
- Vitamin D content on storage (pH 3.2, 252 mg/ml water, age 6 weeks, Batch #1 (D3), #2 (D3 P)): 598 IU/ml and 612 IU/ml
- Vitamin D content on storage (pH 3.2, 252 mg/ml water, age 8 weeks, Batch #1 (D3), #2 (D3 P)): 544 IU/ml and 574 IU/ml
- Vitamin D content on storage (pH 3.2, 252 mg/ml water, age 12 weeks, Batch #1 (D3), #2 (D3 P)): 471 IU/ml and 443 IU/ml
- Vitamin D content on storage (pH 3.2, 252 mg/ml water, age 16 weeks, Batch #1 (D3), #2 (D3 P)): 397 IU/ml and 385 IU/ml
- Vitamin D content on storage (pH 3.2, 390 mg/ml water, age 0 weeks, Batch #3 (D3), #4 (D3 P)): 430 IU/ml and 425 IU/ml
- Vitamin D content on storage (pH 3.2, 390 mg/ml water, age 1 week, Batch #3 (D3), #4 (D3 P)): 404 IU/ml and 405 IU/ml
- Vitamin D content on storage (pH 3.2, 390 mg/ml water, age 2 weeks, Batch #3 (D3), #4 (D3 P)): 405 IU/ml and 403 IU/ml
- Vitamin D content on storage (pH 3.2, 390 mg/ml water, age 4 weeks, Batch #3 (D3), #4 (D3 P)): 394 IU/ml and 397 IU/ml
- Vitamin D content on storage (pH 3.2, 390 mg/ml water, age 8 weeks, Batch #3 (D3), #4 (D3 P)): 384 IU/ml and 381 IU/ml
- Vitamin D content on storage (pH 3.2, 390 mg/ml water, age 12 weeks, Batch #3 (D3), #4 (D3 P)): 374 IU/ml and 370 IU/ml
- Vitamin D content on storage (pH 3.2, 390 mg/ml water, age 16 weeks, Batch #3 (D3), #4 (D3 P)): 366 IU/ml and 362 IU/ml
- Vitamin D content on storage (pH 4.2, 252 mg/ml water, age 0 weeks, Batch #5 (D3), #6 (D3 P)): 408 IU/ml and 405 IU/ml
- Vitamin D content on storage (pH 4.2, 252 mg/ml water, age 1 week, Batch #5 (D3), #6 (D3 P)): 391 IU/ml and 386 IU/ml
- Vitamin D content on storage (pH 4.2, 252 mg/ml water, age 2 weeks, Batch #5 (D3), #6 (D3 P)): 368 IU/ml and 371 IU/ml
- Vitamin D content on storage (pH 4.2, 252 mg/ml water, age 4 weeks, Batch #5 (D3), #6 (D3 P)): 314 IU/ml and 316 IU/ml
- Vitamin D content on storage (pH 4.2, 252 mg/ml water, age 8 weeks, Batch #5 (D3), #6 (D3 P)): 234 IU/ml
- Vitamin D content on storage (pH 4.2, 252 mg/ml water, age 12 weeks, Batch #5 (D3), #6 (D3 P)): 145 IU/ml and 146 IU/ml
- Vitamin D content on storage (pH 4.2, 252 mg/ml water, age 16 weeks, Batch #5 (D3), #6 (D3 P)): 145 IU/ml and 144 IU/ml
- Vitamin D content on storage (pH 4.2, 390 mg/ml water, age 0 weeks, Batch #7 (D3), #8 (D3 P)): 414 IU/ml and 418 IU/ml
- Vitamin D content on storage (pH 4.2, 390 mg/ml water, age 1 week, Batch #7 (D3), #8 (D3 P)): 397 IU/ml and 395 IU/ml
- Vitamin D content on storage (pH 4.2, 390 mg/ml water, age 2 weeks, Batch #7 (D3), #8 (D3 P)): 395 IU/ml and 399 IU/ml
- Vitamin D content on storage (pH 4.2, 390 mg/ml water, age 4 weeks, Batch #7 (D3), #8 (D3 P)): 379 IU/ml and 371 IU/ml
- Vitamin D content on storage (pH 4.2, 390 mg/ml water, age 8 weeks, Batch #7 (D3), #8 (D3 P)): 353 IU/ml and 347 IU/ml
- Vitamin D content on storage (pH 4.2, 390 mg/ml water, age 12 weeks, Batch #7 (D3), #8 (D3 P)): 339 IU/ml and 328 IU/ml
- Vitamin D content on storage (pH 4.2, 390 mg/ml water, age 16 weeks, Batch #7 (D3), #8 (D3 P)): 319 IU/ml and 315 IU/ml
- Vitamin D content on storage (pH 5.0, 252 mg/ml water, age 0 weeks, Batch #9 (D3), #10 (D3 P)): 426 IU/ml and 424 IU/ml
- Vitamin D content on storage (pH 5.0, 252 mg/ml water, age 1 week, Batch #9 (D3), #10 (D3 P)): 394 IU/ml and 397 IU/ml
- Vitamin D content on storage (pH 5.0, 252 mg/ml water, age 2 weeks, Batch #9 (D3), #10 (D3 P)): 363 IU/ml
- Vitamin D content on storage (pH 5.0, 252 mg/ml water, age 4 weeks, Batch #9 (D3), #10 (D3 P)): 335 IU/ml and 329 IU/ml
- Vitamin D content on storage (pH 5.0, 252 mg/ml water, age 8 weeks, Batch #9 (D3), #10 (D3 P)): 244 IU/ml
- Vitamin D content on storage (pH 5.0, 252 mg/ml water, age 12 weeks, Batch #9 (D3), #10 (D3 P)): 201 IU/ml and 193 IU/ml
- Vitamin D content on storage (pH 5.0, 252 mg/ml water, age 16 weeks, Batch #9 (D3), #10 (D3 P)): 123 IU/ml and 125 IU/ml
- Vitamin D content on storage (pH 5.0, 390 mg/ml water (so in the source), age 0 weeks, Batch #11 (D3), #12 (D3 P)): 433 IU/ml and 437 IU/ml
- Vitamin D content on storage (pH 5.0, 390 mg/ml water (so in the source), age 1 week, Batch #11 (D3), #12 (D3 P)): 404 IU/ml and 414 IU/ml
- Vitamin D content on storage (pH 5.0, 390 mg/ml water (so in the source), age 2 weeks, Batch #11 (D3), #12 (D3 P)): 380 IU/ml and 383 IU/ml
- Vitamin D content on storage (pH 5.0, 390 mg/ml water (so in the source), age 4 weeks, Batch #11 (D3), #12 (D3 P)): 364 IU/ml
- Vitamin D content on storage (pH 5.0, 390 mg/ml water (so in the source), age 8 weeks, Batch #11 (D3), #12 (D3 P)): 306 IU/ml and 300 IU/ml
- Vitamin D content on storage (pH 5.0, 390 mg/ml water (so in the source), age 12 weeks, Batch #11 (D3), #12 (D3 P)): 264 IU/ml and 263 IU/ml
- Vitamin D content on storage (pH 5.0, 390 mg/ml water (so in the source), age 16 weeks, Batch #11 (D3), #12 (D3 P)): 188 IU/ml and 186 IU/ml
- Vitamin D content on storage (pH 5.0, 390 mg/ml water, age 0 weeks, Batch #13 (D3), #14 (D3 P)): 593 IU/ml and 599 IU/ml
- Vitamin D content on storage (pH 5.0, 390 mg/ml water, age 1 week, Batch #13 (D3), #14 (D3 P)): 573 IU/ml and 570 IU/ml
- Vitamin D content on storage (pH 5.0, 390 mg/ml water, age 4 weeks, Batch #13 (D3), #14 (D3 P)): 554 IU/ml and 555 IU/ml
- Vitamin D content on storage (pH 5.0, 390 mg/ml water, age 8 weeks, Batch #13 (D3), #14 (D3 P)): 510 IU/ml and 500 IU/ml
- Vitamin D content on storage (pH 5.0, 390 mg/ml water, age 12 weeks, Batch #13 (D3), #14 (D3 P)): 525 IU/ml and 508 IU/ml
- Vitamin D content on storage (pH 5.0, 390 mg/ml water, age 16 weeks, Batch #13 (D3), #14 (D3 P)): 490 IU/ml
- Vitamin D content on storage (pH 5.0, 435 mg/ml water, age 0 weeks, Batch #15 (D3), #16 (D3 P)): 431 IU/ml and 433 IU/ml
- Vitamin D content on storage (pH 5.0, 435 mg/ml water, age 1 week, Batch #15 (D3), #16 (D3 P)): 418 IU/ml
- Vitamin D content on storage (pH 5.0, 435 mg/ml water, age 2 weeks, Batch #15 (D3), #16 (D3 P)): 395 IU/ml and 404 IU/ml
- Vitamin D content on storage (pH 5.0, 435 mg/ml water, age 4 weeks, Batch #15 (D3), #16 (D3 P)): 403 IU/ml and 394 IU/ml
- Vitamin D content on storage (pH 5.0, 435 mg/ml water, age 8 weeks, Batch #15 (D3), #16 (D3 P)): 364 IU/ml
- Vitamin D content on storage (pH 5.0, 435 mg/ml water, age 12 weeks, Batch #15 (D3), #16 (D3 P)): 343 IU/ml and 338 IU/ml
- Vitamin D content on storage (pH 5.0, 435 mg/ml water, age 16 weeks, Batch #15 (D3), #16 (D3 P)): 256 IU/ml
